Measurements as given in PubChem BioAssay (NCI).
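Test compounds were applied to cells in 96-well plates for 48 hours at 5 doses. TGI marks complete inhibition of growth.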 *1 amine or outer side, *2 acyl side, *3 side chain or, on linkers, in order; H or OH if unused. Where a SMILES comes first, the peptide text is derived from it. Bridges are numbered along the chain shown (N, C = ends). Roman numbers before positions name the chains, in order. [ ]: non-standard residue; d: D form. Actinocin(9to1) = Cc1c2oc3c(C)ccc(C(=O)[*:1])c3nc-2c(C(=O)[*:2])c(N)c1=O; Hyp = O=C(O)[CH]1C[CH](O)CN1; NMeV = CN[CH](C(=O)O)C(C)C; Sar = CNCC(=O)O

Key:
Test in all cases: inhibition of tumour cell growth, NCI panel, 48 h
[1] = tested on: A498 renal
[2] = tested on: COLO 205 colon
[3] = tested on: EKVX NSCLC
[4] = tested on: HCC-2998 colon
[5] = tested on: HL-60(TB) leukemia
[6] = tested on: KM12 colon
[7] = tested on: M14 melanoma
[8] = tested on: NCI-H226 lung
[9] = tested on: OVCAR-3 ovarian
[10] = tested on: RXF 393 renal
[11] = tested on: SF-539 CNS
[12] = tested on: SN12C renal
[13] = tested on: U251 CNS
[14] = tested on: UO-31 renal

SMILES | TGI [1] [µM] | TGI [2] [µM] | TGI [3] [µM] | TGI [4] [µM] | TGI [5] [µM] | TGI [6] [µM] | TGI [7] [µM] | TGI [8] [µM] | TGI [9] [µM] | TGI [10] [µM] | TGI [11] [µM] | TGI [12] [µM] | TGI [13] [µM] | TGI [14] [µM]
O=c1c2cnccc2cc2c3ccccc3ccn12 | > 100 | > 100 | > 100 | > 100 | > 100 | > 100 | > 100 | > 100 | > 100 | > 100 | > 100 | > 100 | > 100 | > 100
Cc1c2oc3c(C)ccc(C(=O)NC4C(=O)NC(C(C)C)C(=O)N5CC(O)CC5C(=O)N(C)CC(=O)N(C)C(C(C)C)C(=O)OC4C)c3nc-2c(C(=O)NC2C(=O)NC(C(C)C)C(=O)N3CC(O)CC3C(=O)N(C)CC(=O)N(C)C(C(C)C)C(=O)OC2C)c(N)c1=O (stereo not drawn) (I: TV[Hyp][Sar][NMeV] / II: TV[Hyp][Sar][NMeV]; ester I:1-I:C, II:1-II:C; linker I:N-II:N via Actinocin(9to1); configuration not given here) | > 1 | > 1 | > 1 | > 1 | > 1 | > 1 | > 1 | > 1 | > 1 | > 1 | > 1 | > 1 | > 1 | > 1
CCCCc1ccc(Nc2nc(Cl)c3c(ncn3C3CC(Oc4ccc(C)cc4)C(COc4ccc(C)cc4)O3)n2)cc1 (stereo not drawn) | > 100 | > 100 | > 100 | > 100 | > 100 | > 100 | > 100 | > 100 | > 100 | > 100 | > 100 | > 100 | > 100 | > 100
Cc1cc2c(c(S(=O)(=O)c3ccccc3[N+](=O)[O-])c1)NCCC2 | > 100 | > 100 | > 100 | > 100 | > 100 | > 100 | > 100 | > 100 | > 100 | > 100 | > 100 | > 100 | > 100 | > 100
C=C(C)[C@H]1C2=CC(C)=C(O2)[C@@H](O)[C@H](C(=C)C)CCC2=C[C@H]1OC2=O | > 100 | > 100 | > 100 | > 100 | > 100 | > 100 | > 100 | > 100 | > 100 | > 100 | > 100 | > 100 | > 100 | > 100
CN(CCCNC(=O)c1nn(C)c2c1Cc1ccccc1-2)CCCNC(=O)c1nn(C)c2c1Cc1ccccc1-2 | 31.7 | 30.2 | 39.2 | 23.5 | 10.8 | 35.4 | 14.5 | – | 38 | 34.3 | 33.9 | 33.8 | 26.2 | 5.58
C/C=C(\C)C(=O)O[C@@H]1CC(C)(C)CC2C3=CCC4[C@]56CC[C@](O)(OC5)C(C)(C)C6CC[C@@]4(C)C3(C)CC[C@]21C(=O)O (stereo partly drawn) | > 100 | > 100 | > 100 | > 100 | > 100 | > 100 | > 100 | > 100 | > 100 | > 100 | > 100 | > 100 | > 100 | –
O=[N+]([O-])c1cc(F)ccc1S(=O)(=O)c1ccccc1 | > 10 | > 10 | > 10 | > 10 | > 10 | > 10 | > 10 | > 10 | > 10 | > 10 | > 10 | > 10 | > 10 | –
COc1cc(C2C3=C(CCCC3=O)N(c3ccc(C)cc3)C3=C2C(=O)CCC3)c([N+](=O)[O-])cc1OC | > 100 | – | > 100 | > 100 | > 100 | > 100 | > 100 | > 100 | > 100 | > 100 | > 100 | > 100 | > 100 | > 100
O=c1[nH]c2nccn2c2c1SCCN2 | > 100 | > 100 | > 100 | > 100 | > 100 | > 100 | > 100 | > 100 | > 100 | > 100 | > 100 | > 100 | > 100 | –
CCn1c2c(c3ccccc31)[C@@H](c1ccc(Cl)cc1)CC1C(=O)N(c3ccccc3)C(=O)C21 (stereo partly drawn) | > 100 | > 100 | > 100 | > 100 | > 100 | > 100 | > 100 | > 100 | > 100 | > 100 | 97.1 | > 100 | > 100 | > 100
COc1ccc2c(c1)NC1(CCN(CCCC(=O)c3ccc(F)cc3)CC1)N=N2 | 76.7 | 27.8 | > 100 | 28.2 | 32.8 | 41 | 26.6 | 95.6 | 53.5 | 55.1 | 35.9 | 64.4 | 48.6 | 57.8
COC(=O)c1c2c(cc3c1CC1(Cc4cc5c(c(C(C)=O)c4C1)CCCC5)C3)CCCC2 (stereo not drawn) | > 100 | > 100 | > 100 | > 100 | 46.3 | > 100 | > 100 | > 100 | > 100 | > 100 | > 100 | > 100 | > 100 | –
O=[N+]([O-])/C=C(\CS(=O)(=O)c1ccccc1)c1ccc2c(c1)OCO2 | 81.2 | > 100 | > 100 | > 100 | > 100 | 71.7 | 71.4 | 84.5 | > 100 | > 100 | > 100 | > 100 | > 100 | 98.7
C=CCOC(=O)N1c2ccc(O)cc2[C@@]23O[C@@]24[C@@H]1C#C/C=C\C#C[C@]3(O)C(OC)(OC)C[C@@H]4C | 67.6 | 33.1 | > 100 | > 100 | 72 | 69.7 | 79.9 | 74.3 | – | > 100 | 40.6 | 61.6 | > 100 | > 100
